Laboratory results reported in US9045491B2, “Thienyl [3,2-D] pyrimidin-4-one compounds, preparation method, pharmaceutical compositions and use thereof” (SHANGHAI INSTITUTE OF MATERIA MEDICA, CHINESE ACADEMY OF …, priority 2011, dated 2015).

What was measured:
Type in all cases: biochemical
human DPP 8 = molecular target: T1, human DPP 8 (Homo sapiens, UniProt Q6V1X1); test: DPP 8 activity screening (Ala-Pro-AMC fluorescence); settings: N.I. = No Inhibition
T1 construct: made in house; host or cells: insect cells, baculovirus Bac-to-Bac
Excerpt: (§1) Screening method: dipeptidyl peptidase IV (DPP IV) activity screening, dipeptidyl peptidase 7 (DPP 7), dipeptidyl peptidase 8 (DPP 8) activity screening, and dipeptidyl peptidase 9 (DPP 9) activity screening.
(§2) Materials: human DPP IV, obtained extracellular fragment of protease DPP IV (aa29-766), was expressed and purified by our laboratory using baculovirus expression system Bac-to-Bac (purchased from GIBCO company) in accordance with the conventional experimental technology; human DPP 8 was obtained in insect cells by our laboratory using baculovirus expression system Bac-to-Bac (purchased from GIBCO company) in accordance with the conventional experimental technology; Human DPP 9 was obtained in insect cells by our laboratory using baculovirus expression system Bac-to-Bac (purchased from GIBCO company) in accordance with the conventional experimental technology; and the substrate Ala-Pro-AMC was synthesized by GL Biochem (Shanghai) Ltd.
(§3) Principle of Activity test: DPP IV, DPP 8 and DPP 9 can specifically hydrolyze the substrate Ala-Pro-AMC to form product AMC, and AMC is excited by 355 nm of UV light to generate 460 nm of emission light. The linear change of fluorescence value at 460 nm in unit time was dynamically measured and DPP IV activity was obtained by calculation.
(§4) Sample treatment: the sample was dissolved in DMSO and stored in low temperature. The concentration of DMSO in the final system was controlled so that the detected activity was not affected.
(§5) The activity of sample was tested under the selected single concentration from preliminary screening, for example, 20 μg/mL. […] The software for calculation was Graphpad Prism 4 and the model used for fitting was sigmoidal dose-response (variable slope). For most inhibitor screening models, the bottom and top of the fitting curve were set to 0 and 100.

human DPP IV = molecular target: T2, human DPP IV (Homo sapiens, UniProt P27487); test: DPP IV activity screening (Ala-Pro-AMC fluorescence)
T2 construct: extracellular fragment of protease DPP IV (aa29-766); made in house; host or cells: baculovirus expression system Bac-to-Bac
Experimental: as §1
Instruments: Microplate Reader (PerkinElmer, USA).
The linear change of fluorescence value at 460 nm in unit time was dynamically measured and DPP IV activity was obtained by calculation.
as §4, §5

[1] = molecular target: dipeptidyl peptidase 7 (DPP 7) (Homo sapiens, UniProt Q9UHL4); test: DPP 7 activity screening; settings: N.I. = No Inhibition
Experimental: as §1, §4, §5

FAP = molecular target: T3, FAP (Homo sapiens, UniProt Q12884); test: FAP inhibition (Table 1); settings: N.I. = No Inhibition
T3 sequence (Q12884 1-760): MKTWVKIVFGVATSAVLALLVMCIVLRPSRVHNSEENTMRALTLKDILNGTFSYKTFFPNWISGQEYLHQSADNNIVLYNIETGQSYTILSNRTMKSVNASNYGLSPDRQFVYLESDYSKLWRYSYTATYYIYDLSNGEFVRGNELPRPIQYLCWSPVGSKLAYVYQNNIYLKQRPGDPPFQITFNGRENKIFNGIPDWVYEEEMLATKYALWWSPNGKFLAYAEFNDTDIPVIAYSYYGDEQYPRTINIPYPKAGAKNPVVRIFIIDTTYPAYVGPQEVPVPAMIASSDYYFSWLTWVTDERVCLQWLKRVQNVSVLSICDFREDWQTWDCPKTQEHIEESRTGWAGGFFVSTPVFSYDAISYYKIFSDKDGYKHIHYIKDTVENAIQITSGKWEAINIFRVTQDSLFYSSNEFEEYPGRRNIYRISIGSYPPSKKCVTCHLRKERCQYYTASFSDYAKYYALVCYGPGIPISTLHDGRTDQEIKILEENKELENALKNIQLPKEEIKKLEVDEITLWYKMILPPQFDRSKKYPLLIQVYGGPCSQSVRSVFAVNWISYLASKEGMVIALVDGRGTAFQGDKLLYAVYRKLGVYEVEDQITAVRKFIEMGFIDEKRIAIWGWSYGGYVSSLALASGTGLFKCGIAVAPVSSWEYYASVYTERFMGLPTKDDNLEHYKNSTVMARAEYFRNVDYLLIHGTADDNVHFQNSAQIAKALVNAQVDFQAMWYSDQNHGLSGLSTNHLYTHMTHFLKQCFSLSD

Human DPP 9 = molecular target: T4, Human DPP 9 (Homo sapiens, UniProt Q86TI2); test: DPP 9 activity screening (Ala-Pro-AMC fluorescence); settings: N.I. = No Inhibition
T4 construct: made in house; host or cells: insect cells, baculovirus Bac-to-Bac
Excerpt: as §1, §2, §3, §4, §5

T2 sequence (P27487 29-766): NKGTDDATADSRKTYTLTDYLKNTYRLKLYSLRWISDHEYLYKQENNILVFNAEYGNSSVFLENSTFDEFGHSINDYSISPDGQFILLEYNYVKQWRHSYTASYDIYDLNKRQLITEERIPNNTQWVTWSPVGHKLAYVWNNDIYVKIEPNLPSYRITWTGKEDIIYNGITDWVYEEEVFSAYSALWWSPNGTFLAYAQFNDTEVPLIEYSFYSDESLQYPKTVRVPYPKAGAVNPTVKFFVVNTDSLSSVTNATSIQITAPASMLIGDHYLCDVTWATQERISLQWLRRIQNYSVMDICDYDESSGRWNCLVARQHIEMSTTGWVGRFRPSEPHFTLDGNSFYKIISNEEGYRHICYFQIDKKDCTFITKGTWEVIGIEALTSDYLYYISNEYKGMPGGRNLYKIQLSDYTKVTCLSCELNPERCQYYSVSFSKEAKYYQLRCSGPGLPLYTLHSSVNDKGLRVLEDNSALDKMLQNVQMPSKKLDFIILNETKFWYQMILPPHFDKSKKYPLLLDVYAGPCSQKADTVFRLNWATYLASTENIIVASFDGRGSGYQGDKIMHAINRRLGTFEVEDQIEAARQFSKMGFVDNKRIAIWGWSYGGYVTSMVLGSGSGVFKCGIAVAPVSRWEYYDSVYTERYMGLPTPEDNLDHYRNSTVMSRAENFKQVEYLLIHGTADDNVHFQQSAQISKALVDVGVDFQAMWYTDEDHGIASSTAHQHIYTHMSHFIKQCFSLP
T4 sequence (Q86TI2 whole entry): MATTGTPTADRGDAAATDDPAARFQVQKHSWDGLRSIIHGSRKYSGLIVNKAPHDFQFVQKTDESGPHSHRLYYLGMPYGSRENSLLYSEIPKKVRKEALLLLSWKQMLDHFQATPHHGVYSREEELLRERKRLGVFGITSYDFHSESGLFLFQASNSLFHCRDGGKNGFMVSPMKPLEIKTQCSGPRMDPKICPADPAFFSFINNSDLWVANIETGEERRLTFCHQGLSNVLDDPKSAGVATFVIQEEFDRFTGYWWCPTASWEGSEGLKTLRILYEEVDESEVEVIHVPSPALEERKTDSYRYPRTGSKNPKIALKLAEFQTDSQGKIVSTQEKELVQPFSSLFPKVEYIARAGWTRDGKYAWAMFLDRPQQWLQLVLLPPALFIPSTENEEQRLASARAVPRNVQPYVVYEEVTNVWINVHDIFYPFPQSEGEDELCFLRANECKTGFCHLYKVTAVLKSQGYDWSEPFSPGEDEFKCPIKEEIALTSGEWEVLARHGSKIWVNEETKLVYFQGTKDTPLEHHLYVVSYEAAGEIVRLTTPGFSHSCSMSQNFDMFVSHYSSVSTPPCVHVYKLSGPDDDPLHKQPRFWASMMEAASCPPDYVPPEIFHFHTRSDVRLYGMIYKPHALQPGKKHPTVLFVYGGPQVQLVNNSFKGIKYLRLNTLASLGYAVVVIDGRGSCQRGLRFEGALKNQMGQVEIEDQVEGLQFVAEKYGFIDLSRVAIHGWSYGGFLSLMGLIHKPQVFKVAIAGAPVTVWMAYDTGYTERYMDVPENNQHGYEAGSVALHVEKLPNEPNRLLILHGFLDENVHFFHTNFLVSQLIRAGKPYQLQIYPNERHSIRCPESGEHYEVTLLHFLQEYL
T1 sequence (Q6V1X1 whole entry): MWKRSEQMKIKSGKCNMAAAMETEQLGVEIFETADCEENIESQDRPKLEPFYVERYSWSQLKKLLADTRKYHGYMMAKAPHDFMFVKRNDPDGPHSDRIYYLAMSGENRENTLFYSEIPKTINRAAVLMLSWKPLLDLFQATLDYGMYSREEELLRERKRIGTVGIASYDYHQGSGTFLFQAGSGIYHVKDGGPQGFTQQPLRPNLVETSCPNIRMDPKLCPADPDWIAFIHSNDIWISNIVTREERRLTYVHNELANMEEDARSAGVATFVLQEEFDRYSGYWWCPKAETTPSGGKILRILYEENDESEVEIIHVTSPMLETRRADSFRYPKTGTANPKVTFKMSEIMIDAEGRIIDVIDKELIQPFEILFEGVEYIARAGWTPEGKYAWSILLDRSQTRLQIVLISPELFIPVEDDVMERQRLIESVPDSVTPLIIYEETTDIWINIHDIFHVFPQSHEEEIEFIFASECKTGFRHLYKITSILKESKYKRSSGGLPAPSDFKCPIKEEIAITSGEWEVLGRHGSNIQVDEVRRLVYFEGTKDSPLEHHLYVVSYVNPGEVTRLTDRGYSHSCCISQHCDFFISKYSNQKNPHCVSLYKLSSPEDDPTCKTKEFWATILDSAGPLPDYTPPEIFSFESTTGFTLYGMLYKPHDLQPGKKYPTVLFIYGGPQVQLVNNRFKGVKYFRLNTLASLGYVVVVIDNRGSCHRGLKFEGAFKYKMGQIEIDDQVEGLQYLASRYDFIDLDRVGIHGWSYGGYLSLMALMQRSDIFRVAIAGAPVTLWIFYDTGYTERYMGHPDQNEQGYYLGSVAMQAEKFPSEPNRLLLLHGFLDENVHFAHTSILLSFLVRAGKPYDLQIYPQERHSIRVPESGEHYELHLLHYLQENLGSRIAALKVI

IC50 (human DPP 8) | IC50 (human DPP IV) | IC50 [1] | IC50 (FAP) | IC50 (Human DPP 9) | DPP 7 IC50 [1] | DPP 8 IC50 (human DPP 8) | FAP IC50 (FAP) | DPP 9 IC50 (Human DPP 9) | Structure (SMILES)
60.4 µM | 0.0288 µM | 27.1 µM | 64.3 µM | 407 µM |  |  |  |  | CC(C)CCNC(=O)c1csc2c(=O)n(Cc3ccccc3C#N)c(N3CCC[C@@H](N)C3)nc12 [Compound 78, (R)-2-(3-aminopiperidin-1-yl)-3-(2-cyanobenzyl)-N-isopentyl-4-oxo-3,4-dihydrothieno[3,2-d]pyrimidine-7-carboxamlde]
 | 0.0204 µM |  |  |  | N.I. | N.I. | N.I. | N.I. | N#Cc1ccccc1Cn1c(N2CCC[C@@H](N)C2)nc2cc(C(N)=O)sc2c1=O [Compound 97, (R)-2-(3-aminopiperidin-1-yl)-3-(2-cyanobenzyl)-4-oxo-3,4-dihydrothieno-[3,2-d]pyrimidine-6-carboxamide]
339 µM | 0.0371 µM |  | 255 µM |  | N.I. |  |  | N.I. | CS(=O)(=O)Nc1csc2c(=O)n(Cc3ccccc3C#N)c(N3CCC[C@@H](N)C3)nc12 [Compound 85, (R)-N-(2-(3-aminopiperidin-1-yl)-3-(2-cyanobenzyl)-4-oxo-3,4-dihydrothieno-[3,2-d]pyrimidin-7-yl) methanesulfonamide]
45.9 µM | 0.0139 µM |  | 30.3 µM | 254 µM | N.I. |  |  |  | CNC(=O)c1csc2c(=O)n(Cc3ccccc3C#N)c(N3CCC[C@@H](N)C3)nc12 [Compound 61, (R)-2-(3-aminopiperidin-1-yl)-3-(2-cyanobenzyl)-N-methyl-4-oxo-3,4-dihydrothieno[3,2-d]pyrimidine-7-carboxamide]
8.16 µM | 0.023 µM | 145 µM | 8.78 µM | 100 µM |  |  |  |  | N#Cc1ccccc1Cn1c(N2CCC[C@@H](N)C2)nc2c(C(=O)NCc3ccc(C(F)(F)F)cc3)csc2c1=O [Compound 68, (R)-2-(3-aminopiperidin-1-yl)-3-(2-cyanobenzyl)-4-oxo-N-(4-(trifluoromethyl)benzyl)-3,4-dihydrothieno[3,2-d]pyrimidine-7-carboxamide]
18.1 µM | 0.0659 µM |  | 16.5 µM |  | N.I. |  |  | N.I. | N#Cc1ccccc1Cn1c(N2CCC[C@@H](N)C2)nc2c(C(=O)NCC3COC3)csc2c1=O [Compound 82, (R)-2-(3-aminopiperidin-1-yl)-3-(2-cyanobenzyl)-N-(oxetan-3-ylmethyl)-4-oxo-3,4-dihydrothieno[3,2-d]pyrimidine-7-carboxamide]
 | 0.027 µM |  | 200 µM | 257 µM | N.I. | N.I. |  |  | CN(C)C(=O)c1cc2nc(N3CCC[C@@H](N)C3)n(Cc3ccccc3C#N)c(=O)c2s1 [Compound 105, (R)-2-(3-aminopiperidin-1-yl)-3-(2-cyanobenzyl)-N,N-dimethyl-4-oxo-3,4-dihydrothieno[3,2-d]pyrimidine-6-carboxamide]
24.9 µM | 0.0137 µM |  | 28.1 µM | 53 µM | N.I. |  |  |  | COC(=O)[C@H](Cc1ccccc1)NC(=O)c1csc2c(=O)n(Cc3ccccc3C#N)c(N3CCC[C@@H](N)C3)nc12 [Compound 67, (S)-methyl 2-(2-((R)-3-aminopiperidin-1-yl)-3-(2-cyanobenzyl)-4-oxo-3,4-dihydrothieno[3,2-d]pyrimidine-7-carboxamido)-3-phenylpropanoate]
 | 0.00357 µM |  |  |  | N.I. | N.I. | N.I. | N.I. | N#Cc1ccccc1Cn1c(N2CCC[C@@H](N)C2)nc2c(C(N)=O)csc2c1=O [Compound 45, (R)-2-(3-aminopiperidin-1-yl)-3-(2-cyanobenzyl)-4-oxo-3,4-dihydrothieno-[3,2-d]pyrimidine-7-carboxamide]
26.8 µM | 0.0143 µM | 144 µM | 52.1 µM | 238 µM |  |  |  |  | CCNC(=O)c1csc2c(=O)n(Cc3ccccc3C#N)c(N3CCC[C@@H](N)C3)nc12 [Compound 71, (R)-2-(3-aminopiperidin-1-yl)-3-(2-cyanobenzyl)-N-ethyl-4-oxo-3,4-dihydrothieno[3,2-d]pyrimidine-7-carboxamide]

Second part, the compound before the results:

Structure (SMILES) | IC50 (human DPP 8) | IC50 (human DPP IV) | IC50 [1] | IC50 (FAP) | IC50 (Human DPP 9) | DPP 7 IC50 [1] | DPP 8 IC50 (human DPP 8) | FAP IC50 (FAP) | DPP 9 IC50 (Human DPP 9)
N#Cc1ccccc1Cn1c(N2CCC[C@@H](N)C2)nc2cc(C(=O)N3CCCC3)sc2c1=O [Compound 107, (R)-2-((2-(3-aminopiperidin-1-yl)-4-oxo-6-(pyrrolidine-1-carbonyl)thieno-[3,2-d]pyrimidin-3(4H)-yl)methyl)-benzonitrile] | 39.7 µM | 0.0241 µM |  | 98.6 µM | 122 µM | N.I. |  |  | 
N#Cc1ccccc1Cn1c(N2CCC[C@@H](N)C2)nc2cc(C(=O)N3CCCCC3)sc2c1=O [Compound 108, (R)-2-((2-(3-aminopiperidin-1-yl)-4-oxo-6-(piperidine-1-carbonyl)thieno-[3,2-d]pyrimidin-3(4H)-yl)methyl)-benzonitrile] | 15.1 µM | 0.0118 µM |  | 27 µM | 111 µM | N.I. |  |  | 
N#Cc1ccccc1Cn1c(N2CCC[C@@H](N)C2)nc2cc(C(=O)NCc3ccccc3Cl)sc2c1=O [Compound 110, (R)-2-(3-aminopiperidin-1-yl)-N-(2-chlorobenzyl)-3-(2-cyanobenzyl)-4-oxo-3,4-dihydrothieno[3,2-d]pyrimidine-6-carboxamide] | 80.6 µM | 0.0248 µM |  | 133 µM | 51.2 µM | N.I. |  |  | 
CC(C)NC(=O)c1cc2nc(N3CCC[C@@H](N)C3)n(Cc3ccccc3C#N)c(=O)c2s1 [Compound 115, (R)-2-(3-aminopiperidin-1-yl)-3-(2-cyanobenzyl)-N-isopropyl-4-oxo-3,4-dihydrothieno[3,2-d]pyrimidine-6-carboxamide] | 181 µM | 0.0145 µM |  | 146 µM | 167 µM | N.I. |  |  | 
COC(=O)[C@@H](NC(=O)c1cc2nc(N3CCC[C@@H](N)C3)n(Cc3ccccc3C#N)c(=O)c2s1)C(C)C [Compound 100, (S)-methyl 2-(2-((R)-3-aminopiperidin-1-yl)-3-(2-cyanobenzyl)-4-oxo-3,4-dihydrothieno[3,2-d]pyrimidine-6-carboxamido)-3-methylbutanoate] | 43.1 µM | 0.0283 µM |  | 119 µM | 117 µM | N.I. |  |  | 
N#Cc1ccccc1Cn1c(N2CCC[C@@H](N)C2)nc2cc(C(=O)NCc3ccc(C(F)(F)F)cc3)sc2c1=O [Compound 103, (R)-2-(3-aminopiperidin-1-yl)-3-(2-cyanobenzyl)-4-oxo-N-(4-(trifluoromethyl)benzyl)-3,4-dihydrothieno[3,2-d]pyrimidine-6-carboxamide] |  | 0.0538 µM |  | 145 µM | 86.8 µM | N.I. | N.I. |  | 
CC(C)CCNC(=O)c1cc2nc(N3CCC[C@@H](N)C3)n(Cc3ccccc3C#N)c(=O)c2s1 [Compound 121, (R)-2-(3-aminopiperidin-1-yl)-3-(2-cyanobenzyl)-N-isopentyl-4-oxo-3,4-dihydrothieno[3,2-d]pyrimidine-6-carboxamide] |  | 0.0269 µM |  |  |  | N.I. | N.I. | N.I. | N.I.
